According to PubChem BioAssay (NCI):
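Method: 48-hour compound exposure of cells in 96-well plates, five concentrations, linear interpolation of endpoints. GI50 marks 50% less growth. At the TGI there is no net growth.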

What was measured:
Assay in all cases: NCI anticancer screen, dose series, 48 h
ACHN renal = system: ACHN renal
HOP-62 NSCLC = system: HOP-62 NSCLC
K-562 leukemia = system: K-562 leukemia
NCI/ADR-RES ovarian = system: NCI/ADR-RES ovarian
OVCAR-4 ovarian = system: OVCAR-4 ovarian
OVCAR-8 ovarian = system: OVCAR-8 ovarian
SK-MEL-5 melanoma = system: SK-MEL-5 melanoma
SK-OV-3 ovarian = system: SK-OV-3 ovarian
SR leukemia = system: SR leukemia
TK-10 renal = system: TK-10 renal

| SMILES | GI50 (ACHN renal) | TGI (ACHN renal) | GI50 (HOP-62 NSCLC) | TGI (HOP-62 NSCLC) | GI50 (K-562 leukemia) | TGI (K-562 leukemia) | GI50 (NCI/ADR-RES ovarian) | TGI (NCI/ADR-RES ovarian) | GI50 (OVCAR-4 ovarian) | TGI (OVCAR-4 ovarian) | GI50 (OVCAR-8 ovarian) | TGI (OVCAR-8 ovarian) | GI50 (SK-MEL-5 melanoma) | TGI (SK-MEL-5 melanoma) | GI50 (SK-OV-3 ovarian) | TGI (SK-OV-3 ovarian) | GI50 (SR leukemia) | TGI (SR leukemia) | GI50 (TK-10 renal) | TGI (TK-10 renal) |
| --- | --- | --- | --- | --- | --- | --- | --- | --- | --- | --- | --- | --- | --- | --- | --- | --- | --- | --- | --- | --- |
| Nc1ncc(-c2cnn(CCO)c2)c2scc(-c3ccc(NC(=O)Nc4cccc(F)c4)cc3)c12 | 0.289 µM | 4.75 µM | 0.418 µM | 2.71 µM | 0.0399 µM | 15.1 µM | 2.5 µM | 20.1 µM | 0.299 µM | 11.4 µM | 0.253 µM | 2.39 µM | 1.03 µM | 2.35 µM | 0.338 µM | 3.99 µM | < 0.01 µM | 1.26 µM | 0.394 µM | 3.43 µM |
| NC(CC(=O)OCc1ccccc1)C(=O)OCc1ccccc1 (centres undefined) |  | > 100 µM |  | > 100 µM |  |  |  | > 100 µM |  |  |  | > 100 µM |  | > 100 µM |  |  |  | > 100 µM |  | > 100 µM |
| COc1cc(C2=NN(C(C)=O)C(c3ccc(OC(C)=O)cc3OC(C)=O)O2)c(OC(C)=O)c2ccccc12 (centres undefined) | 0.447 µM | > 35.6 µM | 0.565 µM | 14.6 µM | 0.872 µM | > 91.2 µM | 0.542 µM | > 51.8 µM | 0.306 µM | 8.64 µM | 0.426 µM | 33.7 µM | 0.984 µM | 7.54 µM | 0.649 µM | 19.7 µM | 0.537 µM | > 27.4 µM | 1.31 µM | 35.1 µM |
| COC(=O)Nc1nc2ccc(Oc3ccc(NC(=O)Nc4ccccc4)cc3)cc2[nH]1 | 0.466 µM | > 25 µM | 0.109 µM | 2.52 µM | 0.105 µM | > 9.63 µM | 0.391 µM | > 25 µM | 0.207 µM | 5.68 µM | 0.545 µM | 8.04 µM | 0.0702 µM | 1.18 µM | 0.0696 µM | 0.3 µM | 0.0744 µM | > 8.46 µM | 0.787 µM | 9.74 µM |
| COc1cc[nH]c1/C=C1\C(=O)Nc2ccccc21 | 3.5 µM | > 25 µM | > 19.3 µM | > 25 µM | 16.9 µM | > 25 µM | 15.5 µM | > 25 µM | 8.02 µM | > 25 µM | 14.2 µM | > 25 µM | 10.9 µM | > 25 µM | 8.14 µM | > 25 µM | 6.44 µM | > 22.7 µM | 6.71 µM | > 25 µM |
| O=C1c2ccccc2-c2c1c1ccccc1c(=O)n2Cc1ccccc1 |  |  |  | > 100 µM |  |  |  | > 100 µM |  | 42.3 µM |  | > 100 µM |  | > 100 µM |  | > 100 µM |  | > 100 µM |  | > 100 µM |
| COc1cc(OC)c(/C=C/C(=O)c2c(OC)cccc2OC)c(OC)c1 | 0.703 µM | > 100 µM | 0.742 µM | > 100 µM | 0.444 µM | > 100 µM | 0.387 µM | > 25.8 µM | 19.7 µM | > 100 µM | 1.43 µM | > 100 µM | 0.348 µM | 2.49 µM | 0.79 µM | > 100 µM | 0.517 µM | > 100 µM | 5.03 µM | > 100 µM |
| CN/N=C(/CCN1CCCC1)CC(c1ccccc1)c1c(O)c2ccccc2oc1=O (centres undefined) |  | > 100 µM |  | > 100 µM |  | > 100 µM |  | > 100 µM |  | > 100 µM |  | > 100 µM |  | > 100 µM |  | > 100 µM |  | > 100 µM |  | > 100 µM |
| COC(=O)C(=O)C(C(=O)C(=O)Nc1ccccc1C(N)=O)c1nc2ccc(Cl)cc2[nH]c1=O (centres undefined) |  | > 100 µM |  |  |  | > 100 µM |  | > 100 µM |  | > 100 µM |  | > 100 µM |  | > 100 µM |  | > 100 µM |  | > 100 µM |  |  |
| Cc1ccc(C(=NN=C(N)N)c2ccc(C)cc2)cc1 | 1.1 µM | 7.4 µM | 1.21 µM | 12.5 µM | 0.271 µM | 1.55 µM | 1.85 µM | 5.59 µM | 1.7 µM | 13.8 µM | 0.773 µM | 3.59 µM | 0.427 µM | 1.5 µM | 1.16 µM | 10.2 µM | 0.235 µM | 1.69 µM | 0.876 µM | 11.4 µM |
| CCOC(=O)c1cc(/C(=N\O)c2cc(OC)c(OC)c(OC)c2)n2cc(C)cc(C)c12 | 3 µM | > 100 µM | 1.73 µM | 5.45 µM |  |  | 2.19 µM | 7.92 µM | 1.95 µM | 5.1 µM | 5.38 µM | > 100 µM | 2.19 µM | 5.79 µM | 1.89 µM | 4.8 µM | 0.56 µM | 4.57 µM | 3.66 µM | 51.3 µM |
| COc1c2c(cc3nc4ccccc4nc13)CCC(C(C)(C)O)C2 (centres undefined) |  | > 100 µM |  | > 100 µM |  | > 100 µM |  |  |  | > 100 µM |  | > 100 µM |  | > 100 µM |  | > 100 µM |  | > 100 µM |  | > 100 µM |
| Cc1cc(C)nc(NS(=O)(=O)c2ccc(Nc3c4ccccc4nc4c(C(=O)Nc5ccc(S(=O)(=O)Nc6cc(C)on6)cc5)cccc34)cc2)n1 |  | > 100 µM |  | 44.2 µM |  | 80.1 µM |  |  |  | 65.5 µM |  | 39.3 µM |  | 36.3 µM |  | 61.7 µM |  | 81.6 µM |  | 96 µM |
| CN(C)CCNC(=O)c1cccc(C(=O)Nc2ccccc2)c1[N+](=O)[O-] |  | > 100 µM |  | > 100 µM |  | > 100 µM |  | > 100 µM |  |  |  | > 100 µM |  | > 100 µM |  | > 100 µM |  | > 100 µM |  | > 100 µM |
| CN(C)CC/C(=N\Nc1c(Cl)cccc1Cl)c1ccccc1 |  | 50.5 µM |  | > 100 µM |  | 52.3 µM |  |  |  | 47.4 µM |  | 37.6 µM |  | 29.5 µM |  | 52 µM |  | 63.4 µM |  | 30.9 µM |
| Cc1cccc(NC(=O)C(=O)Cc2nc3ccccc3[nH]c2=O)c1C |  | > 100 µM |  | > 100 µM |  | > 100 µM |  |  |  | > 100 µM |  | > 100 µM |  | > 100 µM |  | > 100 µM |  | > 100 µM |  | > 100 µM |
| CC1=C(C)CC2(CCCCC2=O)S(=O)C1 (centres undefined) |  | > 100 µM |  | > 100 µM |  | > 100 µM |  |  |  | > 100 µM |  | > 100 µM |  | > 100 µM |  | > 100 µM |  | > 100 µM |  | > 100 µM |
| COc1cc2oc(-c3ccc(O)cc3)cc(=O)c2c(OC)c1OC |  | > 100 µM |  | > 100 µM |  | > 100 µM |  | > 100 µM |  | > 100 µM |  | > 100 µM |  | > 100 µM |  |  |  | > 100 µM |  | > 100 µM |
